Source: patent US7951815B2, “Substituted 1,4,8-triazaspiro [4,5]decan-2-one compounds” (Gruenenthal GmbH, priority 2004, dated 2011)

system: batrachotoxin (BTX) binding site of the sodium channel; assay: Affinity to the batrachotoxin (BTX) binding site of the sodium channel; settings: Table II; rat cerebrocortex synaptosomes; test concentration not given

Q: `Cl.O=C(C(c1ccccc1)c1ccccc1)N1CCC2(CC1)N[C@@H](Cc1ccccc1)C(=O)N2Cc1ccccc1` [Example 56, 1,3-(S)-dibenzyl-8-diphenylacetyl-1,4,8-triazaspiro[4,5]decan-2-one hydrochloride] was tested. Which BTX inhibition did it give?
A: Its BTX inhibition is 67.

Q: How did the BTX inhibition turn out when `Cl.O=C(c1ccc(Cl)cc1)N1CCC2(CC1)N[C@@H](Cc1ccccc1)C(=O)N2Cc1ccc(F)cc1` (racemic) [Example 28, 3-(S,R)-benzyl-8-(4-chlorobenzoyl)-1-(4-fluorobenzyl)-1,4,8-triazaspiro[4,5]decan-2-one hydrochloride] was run?
A: The BTX inhibition was 47.

same assay, conditions: Table III; rat cerebrocortex synaptosomes; test concentration not given

Q: `COc1ccc(CC(=O)N2CCC3(CC2)NC(CCSC)C(=O)N3Cc2ccc(F)cc2)cc1` (stereo not drawn) [Example 215, 1-(4-Fluorobenzyl)-8-[2-(4-methoxyphenyl)acetyl]-3-(2-methylsulfanylethyl)-1,4,8-triazaspiro[4,5]decan-2-one] was tested. Which BTX inhibition did it give?
A: Its BTX inhibition is 32.

Q: `COC(=O)c1ccc(CN2C(=O)CNC23CCN(C(=O)c2snnc2C)CC3)cc1` [Example 258, Methyl 4-[8-(4-methyl[1,2,3]thiadiazole-5-carbonyl)-2-oxo-1,4,8-triazaspiro[4,5]dec-1-ylmethyl]benzoate] was tested. Which BTX inhibition did it give?
A: The BTX inhibition was 32.

Q: For `CSCCC1NC2(CCN(C(=O)C=Cc3cccc(C(F)(F)F)c3)CC2)N(C)C1=O` (stereo not drawn) [Example 208, 1-Methyl-3-(2-methylsulfanylethyl)-8-[3-(3-trifluoromethylphenyl)acryloyl]-1,4,8-triazaspiro[4,5]decan-2-one], which BTX inhibition is on record?
A: The BTX inhibition was 33.

Q: Which BTX inhibition does the source give for `CCCCN1C(=O)C(C(C)C)NC12CCN(C(=O)CC1CCCC1)CC2` (stereo not drawn) [Example 201, 1-Butyl-8-(2-cyclopentylacetyl)-3-isopropyl-1,4,8-triazaspiro[4,5]decan-2-one] here?
A: Its BTX inhibition is 42.

Q: `COC(=O)c1ccc(CN2C(=O)C(C(C)C)NC23CCN(C(=O)CC(C)(C)C)CC3)cc1` (stereo not drawn) [Example 198, Methyl 4-[8-(3,3-dimethylbutyryl)-3-isopropyl-2-oxo-1,4,8-triazaspiro[4,5]dec-1-ylmethyl]benzoate] was tested. Which BTX inhibition did it give?
A: The BTX inhibition was 30.

Q: How did the BTX inhibition turn out when `CN1C(=O)C(Cc2ccccc2)NC12CCN(C(=O)C1COc3ccc(Cl)cc3C1)CC2` (stereo not drawn) [Example 242, 3-Benzyl-8-(6-chloro-2H-chroman-3-carbonyl)-1-methyl-1,4,8-triazaspiro[4,5]decan-2-one] was run?
A: Its BTX inhibition is 42.

Q: With `C#CCN1C(=O)C(CCSC)NC12CCN(C(=O)c1ccc(-c3ccccc3)cc1)CC2` (stereo not drawn) [Example 213, 8-(Biphenyl-4-carbonyl)-3-(2-methylsulfanylethyl)-1-prop-2-ynyl-1,4,8-triazaspiro[4,5]decan-2-one] as the compound, how does the BTX inhibition read?
A: The BTX inhibition was 43.

Q: How did the BTX inhibition turn out when `Cc1onc(-c2c(F)cccc2Cl)c1C(=O)N1CCC2(CC1)NC(C(C)C)C(=O)N2CCOc1ccccc1` (stereo not drawn) [Example 131, 8-[3-(2-Chloro-6-fluorophenyl)-5-methylisoxazole-4-carbonyl]-3-isopropyl-1-(2-phenoxyethyl)-1,4,8-triazaspiro[4,5]decan-2-one] was run?
A: Its BTX inhibition is 37.

Q: `CC(C)C1NC2(CCN(C(=O)C3COc4ccc(Cl)cc4C3)CC2)N(Cc2ccccc2C#N)C1=O` (stereo not drawn) [Example 245, 2-[8-(6-Chloro-2H-chroman-3-carbonyl)-3-isopropyl-2-oxo-1,4,8-triazaspiro[4,5]dec-1-ylmethyl]benzonitrile] was tested. Which BTX inhibition did it give?
A: The BTX inhibition was 60.

Q: How did the BTX inhibition turn out when `Cc1cccc(C(=O)N2CCC3(CC2)NC(CC(C)C)C(=O)N3Cc2ccccc2F)c1` (stereo not drawn) [Example 132, 1-(2-Fluorobenzyl)-3-isobutyl-8-(3-methylbenzoyl)-1,4,8-triazaspiro[4,5]decan-2-one] was run?
A: The BTX inhibition was 54.

Q: With `CSCCC1NC2(CCN(C(=O)c3c(-c4c(F)cccc4Cl)noc3C)CC2)N(Cc2cccc(C#N)c2)C1=O` (stereo not drawn) [Example 181, 3-[8-[3-(2-Chloro-6-fluorophenyl)-5-methylisoxazole-4-carbonyl]-3-(2-methylsulfanylethyl)-2-oxo-1,4,8-triazaspiro[4,5]dec-1-ylmethyl]benzonitrile] as the compound, how does the BTX inhibition read?
A: Its BTX inhibition is 43.

Q: How did the BTX inhibition turn out when `CCCCC(CC)C(=O)N1CCC2(CC1)NCC(=O)N2CCOc1ccccc1` (stereo not drawn) [Example 133, 8-(2-Ethylhexanoyl)-1-(2-phenoxyethyl)-1,4,8-triazaspiro[4,5]decan-2-one] was run?
A: Its BTX inhibition is 35.

Q: `O=C(c1ccnc(Cl)c1)N1CCC2(CC1)NCC(=O)N2Cc1ccccc1F` [Example 300, 8-(2-Chloropyridin-4-carbonyl)-1-(2-fluorobenzyl)-1,4,8-triazaspiro[4,5]decan-2-one] was tested. Which BTX inhibition did it give?
A: The BTX inhibition was 33.

Q: For `O=C(c1ccccc1C(F)(F)F)N1CCC2(CC1)NCC(=O)N2Cc1ccccc1F` [Example 303, 1-(2-Fluorobenzyl)-8-(2-trifluoromethylbenzoyl)-1,4,8-triazaspiro[4,5]decan-2-one], which BTX inhibition is on record?
A: Its BTX inhibition is 30.

Q: For `CC(C)CC1NC2(CCN(C(=O)c3cc(C(F)(F)F)ccc3Cl)CC2)N(Cc2c(Cl)cccc2Cl)C1=O` (stereo not drawn) [Example 326, 8-(2-Chloro-5-trifluoromethylbenzoyl)-1-(2,6-dichlorobenzyl)-3-isobutyl-1,4,8-triazaspiro[4,5]decan-2-one], which BTX inhibition is on record?
A: The BTX inhibition was 68.

Q: `CC(C)C1NC2(CCN(C(=O)c3cccc(Cl)c3F)CC2)N(Cc2ccccc2C#N)C1=O` (stereo not drawn) [Example 247, 2-[8-(3-Chloro-2-fluorobenzoyl)-3-isopropyl-2-oxo-1,4,8-triazaspiro[4,5]dec-1-ylmethyl]benzonitrile] was tested. Which BTX inhibition did it give?
A: The BTX inhibition was 32.

Q: `CC(C)CC1NC2(CCN(C(=O)CCC3CCCC3)CC2)N(Cc2ccccc2F)C1=O` (stereo not drawn) [Example 220, 8-(3-Cyclopentylpropionyl)-1-(2-fluorobenzyl)-3-isobutyl-1,4,8-triazaspiro[4,5]decan-2-one] was tested. Which BTX inhibition did it give?
A: The BTX inhibition was 62.

Q: For `O=C(c1ccc(F)c(F)c1)N1CCC2(CC1)NCC(=O)N2CCOc1ccccc1` [Example 142, 8-(3,4-Difluorobenzoyl)-1-(2-phenoxyethyl)-1,4,8-triazaspiro[4,5]decan-2-one], which BTX inhibition is on record?
A: The BTX inhibition was 32.

Q: How did the BTX inhibition turn out when `CC(C)CC1NC2(CCN(C(=O)c3ccc(C(F)(F)F)c(F)c3)CC2)N(Cc2ccccc2)C1=O` (stereo not drawn) [Example 241, 1-Benzyl-8-(3-fluoro-4-trifluoromethylbenzoyl)-3-isobutyl-1,4,8-triazaspiro[4,5]decan-2-one] was run?
A: The BTX inhibition was 58.

Q: For `CSCCC1NC2(CCN(C(=O)c3c(-c4ccccc4Cl)noc3C)CC2)N(Cc2cc(C)cc(C)c2)C1=O` (stereo not drawn) [Example 169, 8-[3-(2-Chlorophenyl)-5-methylisoxazole-4-carbonyl]-1-(3,5-dimethylbenzyl)-3-(2-methylsulfanylethyl)-1,4,8-triazaspiro[4,5]decan-2-one], which BTX inhibition is on record?
A: The BTX inhibition was 51.

Q: `CCCCC(=O)N1CCC2(CC1)NC(CCSC)C(=O)N2Cc1cc(C)cc(C)c1` (stereo not drawn) [Example 189, 1-(3,5-Dimethylbenzyl)-3-(2-methylsulfanylethyl)-8-pentanoyl-1,4,8-triazaspiro[4,5]decan-2-one] was tested. Which BTX inhibition did it give?
A: The BTX inhibition was 40.

Q: For `CCOc1ccc(C(=O)N2CCC3(CC2)NC(Cc2ccccc2)C(=O)N3C)cc1` (stereo not drawn) [Example 135, 3-Benzyl-8-(4-ethoxybenzoyl)-1-methyl-1,4,8-triazaspiro[4,5]decan-2-one], which BTX inhibition is on record?
A: The BTX inhibition was 31.

Q: `Cc1oc(C(C)(C)C)cc1C(=O)N1CCC2(CC1)NC(C(C)C)C(=O)N2CCOc1ccccc1` (stereo not drawn) [Example 196, 8-(5-tert-Butyl-2-methylfuran-3-carbonyl)-3-isopropyl-1-(2-phenoxyethyl)-1,4,8-triazaspiro[4,5]decan-2-one] was tested. Which BTX inhibition did it give?
A: The BTX inhibition was 52.

Q: With `CCOc1ccc(C(=O)N2CCC3(CC2)NC(CC(C)C)C(=O)N3Cc2ccccc2)cc1` (stereo not drawn) [Example 179, 1-Benzyl-8-(4-ethoxybenzoyl)-3-isobutyl-1,4,8-triazaspiro[4,5]decan-2-one] as the compound, how does the BTX inhibition read?
A: Its BTX inhibition is 46.

Q: With `C=CCCC(=O)N1CCC2(CC1)NC(C(C)C)C(=O)N2CC=C` (stereo not drawn) [Example 307, 1-Allyl-3-isopropyl-8-pent-4-enoyl-1,4,8-triazaspiro[4,5]decan-2-one] as the compound, how does the BTX inhibition read?
A: Its BTX inhibition is 31.

Q: `CC(C)C1NC2(CCN(C(=O)COc3cccc(Cl)c3)CC2)N(CCOc2ccccc2)C1=O` (stereo not drawn) [Example 165, 8-[2-(3-Chlorophenoxy)acetyl]-3-isopropyl-1-(2-phenoxyethyl)-1,4,8-triazaspiro[4,5]decan-2-one] was tested. Which BTX inhibition did it give?
A: The BTX inhibition was 63.

Q: For `CSCCC1NC2(CCN(C(=O)c3cccc(Cl)c3F)CC2)N(Cc2cc(C)cc(C)c2)C1=O` (stereo not drawn) [Example 156, 8-(3-Chloro-2-fluorobenzoyl)-1-(3,5-dimethylbenzyl)-3-(2-methylsulfanylethyl)-1,4,8-triazaspiro[4,5]decan-2-one], which BTX inhibition is on record?
A: Its BTX inhibition is 60.

Q: How did the BTX inhibition turn out when `CCOC(=O)CN1C(=O)C(CCSC)NC12CCN(C(=O)c1ccc(C(F)(F)F)cc1)CC2` (stereo not drawn) [Example 322, Ethyl [3-(2-methylsulfanylethyl)-2-oxo-8-(4-trifluoromethylbenzoyl)-1,4,8-triazaspiro[4,5]dec-1-yl]acetate] was run?
A: Its BTX inhibition is 36.

Q: Which BTX inhibition does the source give for `CSCCC1NC2(CCN(C(=O)c3cccc(N(C)C)c3)CC2)N(Cc2cc(C)cc(C)c2)C1=O` (stereo not drawn) [Example 137, 8-(3-Dimethylaminobenzoyl)-1-(3,5-dimethylbenzyl)-3-(2-methylsulfanylethyl)-1,4,8-triazaspiro[4,5]decan-2-one] here?
A: Its BTX inhibition is 59.

Q: How did the BTX inhibition turn out when `CC(C)CC1NC2(CCN(C(=O)CC3CCCC3)CC2)N(Cc2ccc(F)cc2)C1=O` (stereo not drawn) [Example 197, 8-(2-Cyclopentylacetyl)-1-(4-fluorobenzyl)-3-isobutyl-1,4,8-triazaspiro[4,5]decan-2-one] was run?
A: Its BTX inhibition is 41.

Q: How did the BTX inhibition turn out when `CCCCC(=O)N1CCC2(CC1)NCC(=O)N2Cc1cccc(C#N)c1` [Example 268, 3-(2-Oxo-8-pentanoyl-1,4,8-triazaspiro[4,5]dec-1-ylmethyl)benzonitrile] was run?
A: The BTX inhibition was 31.

Q: For `CN1C(=O)C(Cc2ccccc2)NC12CCN(C(=O)COc1ccccc1)CC2` (stereo not drawn) [Example 184, 3-Benzyl-1-methyl-8-(2-phenoxyacetyl)-1,4,8-triazaspiro[4,5]decan-2-one], which BTX inhibition is on record?
A: The BTX inhibition was 62.

Q: With `C=CCN1C(=O)C(CCSC)NC12CCN(C(=O)c1c(F)c(F)c(F)c(F)c1F)CC2` (stereo not drawn) [Example 302, 1-Allyl-3-(2-methylsulfanylethyl)-8-pentafluorobenzoyl-1,4,8-triazaspiro[4,5]decan-2-one] as the compound, how does the BTX inhibition read?
A: Its BTX inhibition is 39.

Q: How did the BTX inhibition turn out when `CSCCC1NC2(CCN(C(=O)c3cccc(C)c3C)CC2)N(C)C1=O` (stereo not drawn) [Example 166, 8-(2,3-Dimethylbenzoyl)-1-methyl-3-(2-methylsulfanylethyl)-1,4,8-triazaspiro[4,5]decan-2-one] was run?
A: The BTX inhibition was 47.
